Measurements: patent publication US20080200531A1, “CDKI pathway inhibitors as inhibitors of tumor cell growth” (priority 2006, published 2008)

Experiments:
[1] = system: NFκB p50 and p65 subunits; test: TransAM NFκB p65 and p50 Chemi Transcription Factor Assay (oligonucleotide binding); assay type: cell-based; conditions: TNFα-induced or basal
From the text: We also tested if these compounds could act as the inhibitors of NFκB, by measuring cellular levels of p50 or p65 subunits binding oligonucleotides containing NFκB consensus binding site, using ACTIVE MOTIF TransAM™ NFκB p65 Chemi and NFκB p50 Chemi Transcription Factor Assay Kits.

[2] = system: p21-induced CMV-GFP expression (CDKI pathway); test: CMV-GFP reporter assay for p21-induced transcription (HTS) in HT1080 p21-9 derived reporter cell line; assay type: cell-based, human; conditions: libraries screened at 20 μM
From the text: As described in a co-pending patent application PCT/US06/0 1046, we have developed a high-throughput screening (HTS) procedure for compounds inhibiting the CDKI pathway. This procedure utilizes a highly sensitive reporter cell line that was generated by infecting HT1080 p21-9 cells, a derivative of HT1080 fibrosarcoma cells that express p21 from a promoter induced by a physiologically neutral β-galactoside IPTG (isopropyl-β-thio-galactoside) with a lentiviral vector that expresses Green Fluorescent Protein (GFP) from the CDKI-inducible cytomegalovirus (CMV) promoter, followed by subcloning of GFP positive cells and monitoring the induction of GFP expression by IPTG. A cell line showing approximately 10-fold increase in GFP upon the addition of IPTG was used for HTS in a 96-well format.
This reporter line was used to screen two diversified small-molecule libraries developed by ChemBridge Corp., Microformat 04 and DiverSet, each comprising 50,000 compounds. These diversified libraries were rationally chosen by ChemBridge by quantifying pharmacophores in a collection of >500,000 drug-like molecules, using a version of Chem-X software to maximize the pharmacophore diversity. The Microformat 04 collection was designed to complement the chemical space covered by the older DiverSet library. ChemBridge libraries have been successfully used by numerous industrial and academic researchers, in a variety of cell-based and cell-free assays. The ChemBridge libraries were screened at 20 μM concentration, a conventional concentration for cell-based screening of these libraries. 62 of 100,000 ChemBridge compounds were identified by HTS and verified as inhibiting the induction of CMV-GFP expression in response to p21. This low hit rate (0.06%) indicates a high selectivity of our assay.
In this experiment, HT1080 p21-9 cells that express firefly luciferase from a CDKI-responsive promoter of cellular NK4 gene were cultured with IPTG for two days, which is sufficient for near-maximal induction of NK4 (Poole et al., supra).

[3] = system: HT1080-derived reporter cell line; test: Growth inhibition and cell death in HT1080-derived reporter cell line; assay type: cell-based, human; conditions: cell death detected microscopically by cell detachment
From the text: The combination of p21 and SNX9-class compounds leads to both G1 and G2/M arrest, at the levels expected for the combined effects of p21 and SNX9 (FIG. 6).

[4] = system: isogenic human fibroblast cell lines (untransformed, partially transformed, fully transformed); test: Dose-dependent growth inhibition of three isogenic human fibroblast cell lines with increasing neoplastic transformation; assay type: cell-based; conditions: 3-day assay, Hoechst 33342
From the text: To determine if tumor-specific growth inhibitory activity of SNX9 class compounds could be due to the inhibition of a specific CDK, we took advantage of the availability of selective inhibitors for some of the CDK proteins. Among these enzymes, CDK1, CDK2 and CDK4/CDK6 (the latter two CDKs are closely related to each other and interact with the same class of cyclins), have been used as targets for developing specific inhibitors, with potential anticancer activity. In contrast, CDK3 has not been used as a target for developing selective inhibitors. We have obtained commercially available selective inhibitors of CDK1 (CGP74514A) (Calbiochem Cat. No. 217696), CDK2 (CVT-313) (Calbiochem Cat. No. 238803), and CDK4 (NSC 625987) (Calbiochem Cat. No. 219477), and tested them, along with a broad-specificity CDK inhibitor flavopiridol, and with SNX14, SNX9 and SNX9-1, for growth inhibition of normal and transformed fibroblasts.
This analysis was done using a set of three isogenic human fibroblast cell lines with increasing degrees of neoplastic transformation (immortal but untransformed, partially transformed, and fully transformed).

[5] = system: WI-38 and BJ-EN fibroblasts vs HT1080, HCT116, C33-A, Calu-6; test: 3-day growth inhibition assay (Hoechst 33342), normal fibroblasts vs tumor cell lines; conditions: 3-day assay, WI-38, BJ-EN vs HT1080, HCT116, C33-A
Experimental: (§1) The assays were carried out in 96-well plates, in triplicates; the plated cell numbers for each cell line were determined in preliminary experiments to assure exponential growth over the 3-day period of the assay. The cell numbers were measured by staining DNA of attached cells with Hoechst 33342, and the results for each dose were expressed as the decrease in cell number relative to untreated cells. For some of the tumor/normal cell line combinations, the assays were repeated using CellTiter-Glo viability assay (Promega), with the same results.

[6] = system: HMEC primary cultures, MCF-7 and MDA231; test: 3-day growth inhibition assay (Hoechst 33342), normal mammary epithelial cells vs breast carcinoma lines; conditions: 3-day assay; HMEC vs MCF-7 and MDA231
Experimental: as §1

Structure (SMILES)	selectivity of growth inhibition for transformed cell lines relative to immortal but untransformed fibroblasts [4]	tumor selectivity of growth inhibition, tumor cells vs normal fibroblasts [5]	tumor selectivity of growth inhibition, normal vs transformed mammary cells [6]	further results
Cc1ccc(S(=O)(=O)N[C@@H](Cc2ccccc2)C(=O)CCl)cc1 [TPCK, reference compound]				NFκB activity (p50 or p65 binding to NFκB consensus oligonucleotide) [1]: completely blocks NFκB activity
NCCc1c[nH]c2ccc(Cl)cc12 [Compound 3]				anti-CDKI pathway activity in the reporter assay (induction of CMV-GFP expression in response to p21) [2]: showed anti-CDKI pathway activity in the reporter assay; growth inhibition of the HT1080-derived reporter cell line [3]: associated with the induction of both cell death (as detected microscopically by cell detachment) and cell cycle arrest
CCn1cnc2c(Nc3cccc(Cl)c3)nc(N[C@@H]3CCCC[C@@H]3N)nc21 [selective CDK1 inhibitor, CGP74514A]	Much lower selectivity for transformed cells			
COc1cccc2c1C(=O)c1c(O)c3c(c(O)c1C2=O)C[C@@](O)(C(=O)CO)C[C@@H]3O[C@H]1C[C@H](N)[C@H](O)[C@H](C)O1 [doxorubicin]		showed no selectivity	no discrimination between normal and transformed mammary cells	
COc1cc(Cl)c2[nH]cc(CCN)c2c1 [Compound 4]				anti-CDKI pathway activity in the reporter assay (induction of CMV-GFP expression in response to p21) [2]: showed anti-CDKI pathway activity in the reporter assay; growth inhibition of the HT1080-derived reporter cell line [3]: associated with the induction of both cell death (as detected microscopically by cell detachment) and cell cycle arrest
COc1ccc(OC)c2c(=S)c3ccccc3[nH]c12 [selective inhibitor of CDK4, NSC 625987]	no transformed cell selectivity whatsoever			
CC[C@@]1(O)C(=O)OCc2c1cc1n(c2=O)Cc2cc3ccccc3nc2-1 [camptothecin]		showed no selectivity	no discrimination between normal and transformed mammary cells	
CC(=O)O[C@H]1C(=O)[C@@]2(C)[C@H]([C@H](OC(=O)c3ccccc3)[C@]3(O)C[C@H](OC(=O)[C@H](O)[C@@H](NC(=O)c4ccccc4)c4ccccc4)C(C)=C1C3(C)C)[C@]1(OC(C)=O)CO[C@@H]1C[C@@H]2O [taxol, paclitaxel]		inhibited all the tumor cells to a greater extent than normal fibroblasts	clear tumor selectivity	
CN1CC[C@H](c2c(O)cc(O)c3c(=O)cc(-c4ccccc4Cl)oc23)[C@H](O)C1 [flavopiridol]	no transformed cell selectivity whatsoever			
COc1ccc(CNc2nc(N(CCO)CCO)nc3c2ncn3C(C)C)cc1 [selective inhibitor of CDK2, CVT-313]	no transformed cell selectivity whatsoever			
